Common to all, as to type: biochemical
Experiment [1] deals with T1, GST fusion human ERK2 protein (Homo sapiens, UniProt P28482).
T1 construct: purchased Carna Biosciences, Inc; host or cells: E. coli expression system
The experiment can be described thus: ERK2 enzyme assay (1). Conditions: read-out: ERK2 enzyme inhibitory activity (1). The method, boiled down: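 IC50 derived from the proportion of phosphorylated 5-FAM peptide, separated from unphosphorylated peptide by microfluidic mobility shift. Compound was first preincubated 15 min at room temperature with 2.5 nmol/L kinase at pH 7.5, then 43.1 μmol/L ATP plus 4.25 μmol/L substrate reacted 120 min at 25 °C.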

The target in experiment [2] is T1, GST fusion human ERK2 protein. Description: ERK2 enzyme assay (2). The conditions noted are these: read-out: ERK2 enzyme inhibitory activity (2). The method, boiled down: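 IC50 values come from mobility-shift measurement of phosphorylated versus unphosphorylated 5-FAM peptide substrate after EDTA quench. Beforehand, compound and 1.25 nmol/L E. coli-expressed GST–human ERK2 stood 15 min at room temperature (pH 7.5), then 1 mmol/L ATP and 4.25 μmol/L substrate (final) were added for 120 min at 25 °C.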

In a further experiment the target is T2, human PI3Kα protein (Homo sapiens, UniProt P42336).
T2 construct: purchased Carna Biosciences, Inc; host or cells: baculovirus expression system
T2 sequence (P42336 whole entry): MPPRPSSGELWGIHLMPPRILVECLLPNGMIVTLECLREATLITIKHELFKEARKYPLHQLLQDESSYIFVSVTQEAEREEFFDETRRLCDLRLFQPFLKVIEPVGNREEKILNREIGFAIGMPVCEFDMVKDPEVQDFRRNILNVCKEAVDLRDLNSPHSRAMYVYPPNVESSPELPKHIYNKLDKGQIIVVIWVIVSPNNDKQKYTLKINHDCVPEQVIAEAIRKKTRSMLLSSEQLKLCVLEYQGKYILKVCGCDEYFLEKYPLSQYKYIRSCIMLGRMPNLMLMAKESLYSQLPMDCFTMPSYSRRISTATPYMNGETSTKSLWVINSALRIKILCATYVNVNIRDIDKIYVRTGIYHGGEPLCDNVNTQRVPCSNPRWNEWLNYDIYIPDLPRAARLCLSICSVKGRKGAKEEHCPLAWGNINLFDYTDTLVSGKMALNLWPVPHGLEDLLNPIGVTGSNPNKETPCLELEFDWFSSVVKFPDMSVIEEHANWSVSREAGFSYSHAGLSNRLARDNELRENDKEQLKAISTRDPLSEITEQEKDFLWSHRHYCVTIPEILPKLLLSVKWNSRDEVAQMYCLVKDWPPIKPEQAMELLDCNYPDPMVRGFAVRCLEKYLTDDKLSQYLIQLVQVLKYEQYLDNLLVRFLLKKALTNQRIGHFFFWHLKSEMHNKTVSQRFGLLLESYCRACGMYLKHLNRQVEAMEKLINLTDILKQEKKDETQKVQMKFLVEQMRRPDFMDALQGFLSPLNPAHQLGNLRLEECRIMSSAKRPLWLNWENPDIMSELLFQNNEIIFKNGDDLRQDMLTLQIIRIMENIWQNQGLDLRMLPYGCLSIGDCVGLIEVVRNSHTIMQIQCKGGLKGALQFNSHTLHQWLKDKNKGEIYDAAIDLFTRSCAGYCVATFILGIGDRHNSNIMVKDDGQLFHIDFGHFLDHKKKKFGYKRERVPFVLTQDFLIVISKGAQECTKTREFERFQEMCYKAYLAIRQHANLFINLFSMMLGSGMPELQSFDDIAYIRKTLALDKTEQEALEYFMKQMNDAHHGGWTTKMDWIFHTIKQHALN
T2 sequence (P27986 whole entry partner): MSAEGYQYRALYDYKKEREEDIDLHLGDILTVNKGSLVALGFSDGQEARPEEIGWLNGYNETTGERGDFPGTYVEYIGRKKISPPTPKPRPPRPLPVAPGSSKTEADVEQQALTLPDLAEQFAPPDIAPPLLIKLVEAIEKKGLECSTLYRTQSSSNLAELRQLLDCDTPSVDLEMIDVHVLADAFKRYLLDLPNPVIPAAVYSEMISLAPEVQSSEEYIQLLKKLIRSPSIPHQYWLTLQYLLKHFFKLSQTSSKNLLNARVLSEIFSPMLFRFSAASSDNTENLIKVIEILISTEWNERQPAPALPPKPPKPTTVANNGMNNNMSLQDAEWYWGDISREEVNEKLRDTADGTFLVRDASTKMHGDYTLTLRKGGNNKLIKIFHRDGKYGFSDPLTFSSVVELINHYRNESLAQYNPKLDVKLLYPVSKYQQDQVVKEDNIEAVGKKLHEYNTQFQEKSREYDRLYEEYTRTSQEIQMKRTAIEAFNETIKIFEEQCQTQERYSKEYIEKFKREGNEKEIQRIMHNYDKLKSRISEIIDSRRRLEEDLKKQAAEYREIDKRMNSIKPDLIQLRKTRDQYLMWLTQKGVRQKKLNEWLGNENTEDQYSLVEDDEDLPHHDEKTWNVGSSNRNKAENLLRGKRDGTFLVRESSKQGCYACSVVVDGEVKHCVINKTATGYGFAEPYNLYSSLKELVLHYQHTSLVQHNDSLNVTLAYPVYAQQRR
Description: PI3Kα enzyme assay (ADP-Glo). Conditions: read-out: PI3Kα enzyme inhibitory activity. The method in brief:
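Biotinylated human PI3Kα (baculovirus-expressed, 4.5 nmol/L) pre-incubated 15 min with compound in Tris-HCl pH 7.5, MgCl2, BSA; reaction 60 min at 25° C with 50 μmol/L PIP2 and 100 μmol/L ATP final. ADP quantified by ADP-Glo luminescence; IC50 calculated.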
(In ADP-Glo the light output rises with the ADP produced.)

Where [3] appears, read: 2.5 nmol/L ERK2, ATP 43.1 μmol/L.

The source of these data is patent US9783536B2, “Nitrogen-containing heterocyclic compound or salt thereof” (FUJIFILM Corporation, priority 2013, dated 2017).

Where only a bound is given, the exact number is not on record here.

T1 sequence (P28482 whole entry, the tested form may be a part): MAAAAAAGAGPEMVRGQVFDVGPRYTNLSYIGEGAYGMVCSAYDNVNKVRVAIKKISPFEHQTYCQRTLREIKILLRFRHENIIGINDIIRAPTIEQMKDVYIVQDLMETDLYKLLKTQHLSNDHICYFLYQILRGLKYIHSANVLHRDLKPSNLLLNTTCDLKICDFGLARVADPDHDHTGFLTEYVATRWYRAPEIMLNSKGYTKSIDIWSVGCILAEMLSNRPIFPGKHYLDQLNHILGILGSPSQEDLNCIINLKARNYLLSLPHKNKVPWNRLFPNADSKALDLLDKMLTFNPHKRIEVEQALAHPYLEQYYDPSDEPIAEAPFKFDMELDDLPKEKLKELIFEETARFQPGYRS

For the molecule `c1cnc2[nH]cc(-c3cnc4ccc(Nc5nnc(C6CCCC6)s5)nc4c3)c2c1` [Example 0111], the IC50 in experiment [1] (setting [3]) is less than 1000 nM; in experiment [2] (1.25 nmol/L ERK2, ATP 1 mmol/L), less than 1000 nM.

As to `Cn1cc(-c2cnc3ccc(Nc4nnc(C5CCCC5)s4)nc3c2)c2cccnc21` [Example 0113], the IC50 in experiment [1] (setting [3]) is less than 1000 nM; in experiment [2] (1.25 nmol/L ERK2, ATP 1 mmol/L) it was less than 1000 nM.

In the case of `CCCc1nnc(Nc2ccc3ncc(-c4cnn(C)c4)cc3n2)s1` [Example 0169, N-(7-(1-methyl-1H-pyrazol-4-yl)-1,5-naphthyridin-2-yl)-5-propyl-1,3,4-thiadiazole-2-amine], the IC50 was less than 1000 nM in experiment [1] (setting [3]) and less than 1000 nM in experiment [2] (1.25 nmol/L ERK2, ATP 1 mmol/L).

Turning to `Cn1cc(-c2cnc3ccc(Nc4nnc(C5CCCCC5)s4)nc3c2)cn1` [Example 0217, 5-Cyclohexyl-N-(7-(1-methyl-1H-pyrazol-4-yl)-1,5-naphthyridin-2-yl)-1,3,4-thiadiazole-2-amine], the IC50 in experiment [1] (ERK2 enzyme assay (1)) and in experiment [2] (ERK2 enzyme assay (2)) was less than 1000 nM each time.

As for `OCCc1nnc(Nc2ccc3ncc(-c4cnn(CCCN5CCCC5)c4)cc3n2)s1` [Example 0367], the IC50 (on human PI3Kα protein; in experiment [1] (ERK2 enzyme assay (1))) was less than 1000 nM in each case.

As to `CC(C)c1cnnc(Nc2ccc3ncc(-c4ccccn4)cc3n2)c1` [Example 0369], the IC50 is 1000 to 10000 nM on human PI3Kα protein and less than 1000 nM in experiment [1] (ERK2 enzyme assay (1)).

Take `CC(C)c1cnnc(Nc2ccc3ncc(-c4cnn(CCCN5CCC5)c4)cc3n2)c1` [Example 0371]: the IC50 (on human PI3Kα protein; in experiment [1] (ERK2 enzyme assay (1))) was less than 1000 nM throughout.

Turning to `CC(C)c1cnnc(Nc2ccc3ncc(-c4cnn(Cc5ccccn5)c4)cc3n2)c1` [Example 0375, N-(5-isopropylpyridazin-3-yl)-7-(1-(pyridin-2-ylmethyl)-1H-pyrazol-4-yl)-1,5-naphthyridine-2-amine], the IC50 (at human PI3Kα protein; in experiment [1] (ERK2 enzyme assay (1))) was less than 1000 nM in each case.

Consider `CC(C)c1cnnc(Nc2ccc3ncc(-c4cnn(Cc5cccnc5)c4)cc3n2)c1` [Example 0376], for which the IC50 (at human PI3Kα protein; in experiment [1] (ERK2 enzyme assay (1))) was less than 1000 nM each time.

As for `CC(C)c1cnnc(Nc2ccc3ncc(-c4cnn(CCc5ccncc5)c4)cc3n2)c1` [Example 0377], the IC50 (at human PI3Kα protein; in experiment [1] (ERK2 enzyme assay (1))) was less than 1000 nM in each case.

In the case of `COC1CCCN(CCCn2cc(-c3cnc4ccc(Nc5cc(C(C)C)cnn5)nc4c3)cn2)C1` (stereo not shown) [Example 0378, N-(5-isopropylpyridazin-3-yl)-7-(1-(3-(3-methoxypiperidin-1-yl)propyl)-1H-pyrazol-4-yl)-1,5-naphthyridine-2-amine], the IC50 (at human PI3Kα protein; in experiment [1] (ERK2 enzyme assay (1))) was less than 1000 nM in each case.

Turning to `CC(C)c1cnnc(Nc2ccc3ncc(-c4cnn(CCCN5CCCC(C#N)C5)c4)cc3n2)c1` (stereo not shown) [Example 0379, 1-(3-(4-(6-((5-Isopropylpyridazin-3-yl)amino)-1,5-naphthyridin-3-yl)-1H-pyrazol-1-yl)propyl)piperidine-3-carbonitrile], the IC50 (on human PI3Kα protein; in experiment [1] (ERK2 enzyme assay (1))) was less than 1000 nM in each case.

Turning to `CC(C)c1cnnc(Nc2ccc3ncc(-c4cnn(CCn5ccnc5)c4)cc3n2)c1` [Example 0380, 7-(1-(2-(1H-imidazol-1-yl)ethyl)-1H-pyrazol-4-yl)-N-(5-isopropylpyridazin-3-yl)-1,5-naphthyridine-2-amine], the IC50 (on human PI3Kα protein; in experiment [1] (ERK2 enzyme assay (1))) was less than 1000 nM throughout.

With `CC(C)c1cnnc(Nc2ccc3ncc(-c4cnn(Cc5ccncc5)c4)cc3n2)c1` [Example 0381], the IC50 (at human PI3Kα protein; in experiment [1] (ERK2 enzyme assay (1))) was less than 1000 nM throughout.

Consider `CCc1nn(CCCN2CCOCC2)cc1-c1cnc2ccc(Nc3cc(C(C)C)cnn3)nc2c1` [Example 0385, 7-(3-ethyl-1-(3-morpholinopropyl)-1H-pyrazol-4-yl)-N-(5-isopropylpyridazin-3-yl)-1,5-naphthyridine-2-amine], for which the IC50 (at human PI3Kα protein; in experiment [1] (ERK2 enzyme assay (1))) was less than 1000 nM throughout.

As for `CCc1nn(CCCN2CCCC2)cc1-c1cnc2ccc(Nc3cc(C(C)C)cnn3)nc2c1` [Example 0386, 7-(3-ethyl-1-(3-(pyrrolidin-1-yl)propyl)-1H-pyrazol-4-yl)-N-(5-isopropylpyridazin-3-yl)-1,5-naphthyridine-2-amine], the IC50 (on human PI3Kα protein; in experiment [1] (ERK2 enzyme assay (1))) was less than 1000 nM each time.

For the molecule `CC(C)c1cnnc(Nc2ccc3ncc(Nc4cncnc4)cc3n2)c1` [Example 0387, N^2-(5-isopropylpyridazin-3-yl)-N^7-(pyrimidin-5-yl)-1,5-naphthyridine-2,7-diamine], the IC50 (at human PI3Kα protein; in experiment [1] (ERK2 enzyme assay (1))) was less than 1000 nM in each case.

As for `Cc1cnnc(Nc2ccc3ncc(Nc4cncnc4)cc3n2)c1` [Example 0388, N^2-(5-methylpyridazin-3-yl)-N^7-(pyrimidin-5-yl)-1,5-naphthyridine-2,7-diamine], the IC50 is 1000 to 10000 nM at human PI3Kα protein and less than 1000 nM in experiment [1] (ERK2 enzyme assay (1)).

As for `COCCc1nn(C)cc1-c1cnc2ccc(Nc3nnc(C(C)C)s3)nc2c1` [Example 0389, 5-isopropyl-N-(7-(3-(2-methoxyethyl)-1-methyl-1H-pyrazol-4-yl)-1,5-naphthyridin-2-yl)-1,3,4-thiadiazole-2-amine], the IC50 (on human PI3Kα protein; in experiment [1] (ERK2 enzyme assay (1))) was less than 1000 nM throughout.

Take `CCCc1nn(CCCN2CCCC2)cc1-c1cnc2ccc(Nc3cc(C(C)C)cnn3)nc2c1` [Example 0391, N-(5-isopropylpyridazin-3-yl)-7-(3-propyl-1-(3-(pyrrolidin-1-yl)propyl)-1H-pyrazol-4-yl)-1,5-naphthyridine-2-amine]: the IC50 (on human PI3Kα protein; in experiment [1] (ERK2 enzyme assay (1))) was less than 1000 nM in each case.

With `CC(C)c1cnnc(Nc2ccc3ncc(N4CCOCC4)cc3n2)c1` [Example 0392, N-(5-isopropylpyridazin-3-yl)-7-morpholino-1,5-naphthyridine-2-amine], the IC50 (at human PI3Kα protein; in experiment [1] (ERK2 enzyme assay (1))) was less than 1000 nM each time.

Regarding `CC(C)c1cnnc(Nc2ccc3ncc(-c4cn(C)nc4CO[Si](C)(C)C(C)(C)C)cc3n2)c1` [Example 0393, 7-(3-(((tert-butyldimethylsilyl)oxy)methyl)-1-methyl-1H-pyrazol-4-yl)-N-(5-isopropylpyridazin-3-yl)-1,5-naphthyridine-2-amine], the IC50 at human PI3Kα protein was 1000 to 10000 nM; in experiment [1] (ERK2 enzyme assay (1)), less than 1000 nM.

In the case of `CC(C)c1cnnc(Nc2ccc3ncc(-c4cn(C)nc4CO)cc3n2)c1` [Example 0394, (4-(6-((5-isopropylpyridazin-3-yl)amino)-1,5-naphthyridin-3-yl)-1-methyl-1H-pyrazol-3-yl)methanol], the IC50 (on human PI3Kα protein; in experiment [1] (ERK2 enzyme assay (1))) was less than 1000 nM throughout.

As for `Cc1cnnc(Nc2ccc3ncc(-c4cn(C)nc4CO[Si](C)(C)C(C)(C)C)cc3n2)c1` [Example 0396, 7-(3-(((tert-butyldimethylsilyl)oxy)methyl)-1-methyl-1H-pyrazol-4-yl)-N-(5-methylpyridazin-3-yl)-1,5-naphthyridine-2-amine], the IC50 on human PI3Kα protein is 10000 to 50000 nM; in experiment [1] (ERK2 enzyme assay (1)) it was less than 1000 nM.

Take `Cc1cnnc(Nc2ccc3ncc(-c4cn(C)nc4CO)cc3n2)c1` [Example 0397, (1-methyl-4-(6-((5-methylpyridazin-3-yl)amino)-1,5-naphthyridin-3-yl)-1H-pyrazol-3-yl)methanol]: the IC50 (on human PI3Kα protein; in experiment [1] (ERK2 enzyme assay (1))) was less than 1000 nM in each case.

In the case of `CC(C)c1cnnc(Nc2ccc3ncc(-c4cnn(-c5cccnc5)c4)cc3n2)c1` [Example 0398, N-(5-isopropylpyridazin-3-yl)-7-(1-(pyridin-3-yl)-1H-pyrazol-4-yl)-1,5-naphthyridine-2-amine], the IC50 (on human PI3Kα protein; in experiment [1] (ERK2 enzyme assay (1))) was less than 1000 nM in each case.

Consider `CC(C)c1cnnc(Nc2ccc3ncc(-c4cnn(-c5ccncc5)c4)cc3n2)c1` [Example 0399, N-(5-isopropylpyridazin-3-yl)-7-(1-(pyridin-4-yl)-1H-pyrazol-4-yl)-1,5-naphthyridine-2-amine], for which the IC50 at human PI3Kα protein was 1000 to 10000 nM; in experiment [1] (ERK2 enzyme assay (1)) it was less than 1000 nM.

Regarding `CC(=O)OCC(C)(C)c1cnnc(Nc2ccc3ncc(-c4cnn(CCCN5CCCC5)c4)cc3n2)c1` [Example 0404, 2-Methyl-2-(6-((7-(1-(3-(pyrrolidin-1-yl)propyl)-1H-pyrazol-4-yl)-1,5-naphthyridin-2-yl)amino)pyridazin-4-yl)propyl acetate], the IC50 (on human PI3Kα protein; in experiment [1] (ERK2 enzyme assay (1))) was less than 1000 nM throughout.

`CC(C)c1cnnc(Nc2ccc3ncc(-c4cccnc4)cc3n2)c1` [Example 0407]: the IC50 on human PI3Kα protein is 1000 to 10000 nM; in experiment [1] (ERK2 enzyme assay (1)), less than 1000 nM.

On to `Cn1cc(-c2cnc3ccc(Nc4ccc(NS(C)(=O)=O)nn4)nc3c2)cn1` [Example 0409], for which the IC50 on human PI3Kα protein was less than 1000 nM; in experiment [1] (ERK2 enzyme assay (1)), 1000 to 10000 nM.

As to `CC(C)c1nnc(Nc2ccc3ncc(-c4cnn(C)c4-c4cnn(C)c4)cc3n2)s1` [Example 0476, N-(7-(1′,2-dimethyl-1′H,2H-[3,4′-bipyrazole]-4-yl)-1,5-naphthyridin-2-yl)-5-isopropyl-1,3,4-thiadiazole-2-amine], the IC50 (on human PI3Kα protein; in experiment [1] (ERK2 enzyme assay (1))) was less than 1000 nM each time.

Turning to `CC(C)c1nnc(Nc2ccc3ncc(-c4cn(C)nc4-c4cnn(C)c4)cc3n2)s1` [Example 0477], the IC50 (on human PI3Kα protein; in experiment [1] (ERK2 enzyme assay (1))) was less than 1000 nM throughout.
